According to patent US5445944A, “Methods for determining peroxidately active substances” (Syntex (U.S.A.) Inc., priority 1994, dated 1995):

Key:
HRP [1] = target: T1, HRP (Armoracia rusticana, UniProt P00433); assay: Release of fluorophore, pH jump method (HRP/H2O2 cleavage at pH 5.0, fluorescence read at pH 8.0); format: biochemical, horseradish; conditions: pH jump: reaction in citrate buffer pH 5.0 with H2O2 and 0.1 mL HRP (10 ng/mL); aliquot read in phosphate buffer pH 8.0; experiment repeated (two lines)
T1 sequence (P00433 31-338 limits assumed): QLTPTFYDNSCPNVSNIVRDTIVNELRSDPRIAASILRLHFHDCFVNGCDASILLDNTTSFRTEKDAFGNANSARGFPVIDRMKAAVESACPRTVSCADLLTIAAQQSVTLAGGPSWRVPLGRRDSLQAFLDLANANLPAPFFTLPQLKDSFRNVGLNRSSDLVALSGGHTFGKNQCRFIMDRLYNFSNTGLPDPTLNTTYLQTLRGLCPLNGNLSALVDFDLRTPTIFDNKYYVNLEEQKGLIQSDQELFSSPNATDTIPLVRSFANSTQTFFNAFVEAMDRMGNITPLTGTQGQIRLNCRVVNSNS
Protocol: 0.01 mL of dicarboxidine 11 (or XV), 0.1 mL of 49 and 0.04 mL of H2 O2 were added to 0.75 mL (0.76 mL) citrate buffer (pH 5.0, 0.1M); 0.1 mL of HRP (10 ng/mL) was added to start the reaction. 0.05 mL of this solution was taken every three minutes and added to 0.95 mL of phosphate buffer (pH 8.0, 1.0M) and spectra recorded. This experiment was repeated.
Results: Fluorescence after 3 minutes--background fluorescence.

HRP [2] = target: T1, HRP; assay: Release of fluorophore at pH 7.0 (HRP/H2O2); format: biochemical, horseradish; conditions: phosphate buffer 0.1M pH 7.0, H2O2, 0.1 mL HRP (100 ng/mL); experiment repeated (two lines)
Protocol: 0.01 mL of dicarboxidine 11 (or XV), 0.1 mL of 49 and 0.04 mL of H2 O2 were added to 0.75 mL (0.76 mL) of phosphate buffer (0.1M, pH 7.0). 0.1 mL of HRP (100 ng/mL) was added to start the reaction and the spectra recorded. This experiment was repeated.

[3] = Trapping of / reaction with oxidized dicarboxidine in solution
[4] = Suitability of benzidines as hydrogen donor in the peroxidase cleavage reaction

| SMILES | Effect on / reaction with oxidized dicarboxidine [3] | Function as benzidine hydrogen donor [4] | also measured |
| --- | --- | --- | --- |
| O=C(NCCS(=O)(=O)O)c1cc2ccc(Oc3ccc(O)cc3)cc2oc1=O [Compound 49] |  |  | Fluorescence after 3 minutes--background fluorescence (HRP [1]): 0.50 F.U.; Fluorescence (HRP [2]): 40 F.U. |
| COc1ccc(O)c(C(=O)O)c1 [2-hydroxy-5-methoxy benzoic acid] | has no effect on oxidized dicarboxidine |  |  |
| COc1ccccc1OC [ortho-methoxy anisole] | has no effect on oxidized dicarboxidine |  |  |
| COc1ccc(OC)cc1 [Para-methoxy anisole] | has no effect on oxidized dicarboxidine |  |  |
| COc1ccc(O)cc1C(=O)O [2-methoxy-5-hydroxybenzoic acid] | react with oxidized dicarboxidine |  |  |
| Cc1cc(-c2cc(C)c(N)c(C)c2)cc(C)c1N [3,3',5,5'-tetramethylbenzidine] |  | do not react at a rate acceptable for assays |  |
| CN(C)c1ccc(-c2ccc(N(C)C)cc2)cc1 [N,N,N',N'-tetramethylbenzidine] |  | do not react at a rate acceptable for assays |  |
| O=C(O)c1cc(O)ccc1O [Gentisic acid, gentisic acid] | react with oxidized dicarboxidine |  |  |
| Nc1ccc(-c2ccc(N)cc2)cc1 [benzidine] |  | function in the present invention |  |
| Cc1cc(-c2ccc(N)c(C)c2)ccc1N [3,3'-dimethylbenzidine] |  | function in the present invention |  |
